From patent US20220378923A1, “BET DEGRADER” (KYOWA KIRIN CO., LTD., priority 2019, published 2022)

Test system: MYC mRNA expression in SU-DHL-4 cells
Assay: Suppressive effect on MYC mRNA expression (Test Example 2)
Assay type: cell-based, human
Details: test compound 100 nmol/L, 6 hours, qRT-PCR corrected by ACTB, GAPDH; for inhibition at 0.1 µM: Homo sapiens, HPRT1, read-out: Suppression Rate of MYC mRNA Expression (%); for Suppression Rate of MYC mRNA Expression (%): HPRT1
Outline: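 SU-DHL-4 cells were treated for 6 h at 37 °C with compound (0.1% DMSO final). MYC mRNA was measured by TaqMan qRT-PCR and normalised to the geometric mean of ACTB, GAPDH and HPRT1. Suppression was calculated relative to untreated wells.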

SMILES | inhibition at 0.1 µM [%] | Suppression Rate of MYC mRNA Expression (%)
CCC(=O)N1c2ccccc2[C@H](Nc2ccc(Cc3cnc4n3CCN(C(=O)c3ccc(N[C@@H]5C[C@H](C)N(C(=O)CC)c6ccccc65)cc3)C4)cc2)C[C@@H]1C [Compound 5q, 1-((2S,4R)-2-Methyl-4-((4-((7-(4-(((2S,4R)-2-methyl-1-propionyl-1,2,3,4-tetrahydroquinolin-4-yl)amino)benzoyl)-5,6,7,8-tetrahydroimidazo[1,2-a]pyrazin-3-yl)methyl)phenyl)amino)-3,4-dihydroquinolin-1(2H)-yl)propan-1-one] | 97.2 | –
CCC(=O)N1c2ccccc2[C@H](Nc2ccc(CCCC(=O)Nc3ccc(N[C@@H]4C[C@H](C)N(C(=O)CC)c5ccccc54)cc3)cc2)C[C@@H]1C [Compound 5r, N,4-Bis(4-(((2S,4R)-2-methyl-1-propionyl-1,2,3,4-tetrahydroquinolin-4-yl)amino)phenyl)butanamide] | 96.7 | –
CCC(=O)N1c2ccccc2C(Nc2ccc(NC(=O)C#CCNC(=O)c3ccc(N[C@@H]4C[C@H](C)N(C(=O)CC)c5ccccc54)cc3)cc2)CC1C (stereo partly drawn) [Compound 6h, 4-(((2S,4R)-2-Methyl-1-propionyl-1,2,3,4-tetrahydroquinolin-4-yl)amino)-N-(4-((4-((2-methyl-1-propionyl-1,2,3,4-tetrahydroquinolin-4-yl)amino)phenyl)amino)-4-oxobut-2-yn-1-yl)benzamide] | 97.2 | –
CCC(=O)N1c2ccccc2[C@H](Nc2ccc(NC(=O)CCCC(=O)Nc3ccc(N[C@@H]4C[C@H](C)N(C(=O)CC)c5ccccc54)cc3)cc2)C[C@@H]1C [Compound 6k, N^1,N^5-Bis(4-(((2S,4R)-2-methyl-1-propionyl-1,2,3,4-tetrahydroquinolin-4-yl)amino)phenyl)glutaramide] | 97 | –
CCC(=O)N1c2ccccc2[C@H](Nc2ccc(NC(=O)CCCC(=O)NC3CCC(N[C@@H]4C[C@H](C)N(C(=O)CC)c5ccccc54)CC3)cc2)C[C@@H]1C (stereo partly drawn) [Compound 7o, N^1-((1R,4r)-4-(((2S,4R)-2-Methyl-1-propionyl-1,2,3,4-tetrahydroquinolin-4-yl)amino)cyclohexyl)-N^5-(4-(((2S,4R)-2-methyl-1-propionyl-1,2,3,4-tetrahydroquinolin-4-yl)amino)phenyl)glutaramide] | – | 97.4
CCC(=O)N1c2ccccc2[C@H](Nc2ccc(NC(=O)N3CCN(C(=O)C4CCC(N[C@@H]5C[C@H](C)N(C(=O)CC)c6ccccc65)CC4)CC3)cc2)C[C@@H]1C (stereo partly drawn) [Compound 7p, 4-((1R,4r)-4-(((2S,4R)-2-Methyl-1-propionyl-1,2,3,4-tetrahydroquinolin-4-yl)amino)cyclohexane-1-carbonyl)-N-(4-(((2S,4R)-2-methyl-1-propionyl-1,2,3,4-tetrahydroquinolin-4-yl)amino)phenyl)piperazine-1-carboxamide] | – | 97.9
CCC(=O)N1c2ccccc2[C@H](Nc2ccc(-c3nnc(CNC(=O)[C@H]4CC[C@H](N[C@@H]5C[C@H](C)N(C(=O)CC)c6ccccc65)CC4)o3)cc2)C[C@@H]1C [Compound 7q, (1R,4R)-4-(((2S,4R)-2-Methyl-1-propionyl-1,2,3,4-tetrahydroquinolin-4-yl)amino)-N-((5-(4-(((2S,4R)-2-methyl-1-propionyl-1,2,3,4-tetrahydroquinolin-4-yl)amino)phenyl)-1,3,4-oxadiazol-2-yl)methyl)cyclohexane-1-carboxamide] | – | 97.4
CCC(=O)N1c2ccccc2[C@H](Nc2ccc(NC(=O)CNC(=O)N[C@H]3CC[C@H](N[C@@H]4C[C@H](C)N(C(=O)CC)c5ccccc54)CC3)cc2)C[C@@H]1C [Compound 8j, 2-(3-((1R,4R)-4-(((2S,4R)-2-Methyl-1-propionyl-1,2,3,4-tetrahydroquinolin-4-yl)amino)cyclohexyl)ureido)-N-(4-(((2S,4R)-2-methyl-1-propionyl-1,2,3,4-tetrahydroquinolin-4-yl)amino)phenyl)acetamide] | – | 97.2
CCC(=O)N1c2ccccc2[C@H](Nc2ccc(C(=O)N3CC(C(=O)N[C@H]4CC[C@H](N[C@@H]5C[C@H](C)N(C(=O)CC)c6ccccc65)CC4)C3)cc2)C[C@@H]1C [Compound 8r, 1-(4-(((2S,4R)-2-Methyl-1-propionyl-1,2,3,4-tetrahydroquinolin-4-yl)amino)benzoyl)-N-((1R,4R)-4-(((2S,4R)-2-methyl-1-propionyl-1,2,3,4-tetrahydroquinolin-4-yl)amino)cyclohexyl)azetidine-3-carboxamide] | – | 96.7
CCC(=O)N1c2ccccc2[C@H](Nc2ccc(NC(=O)CCCC(=O)Nc3ccc(N[C@@H]4C[C@H](C)N(C(=O)CC)c5ccccc54)nc3)cc2)C[C@@H]1C [Compound 10k, N^1-(4-(((2S,4R)-2-Methyl-1-propionyl-1,2,3,4-tetrahydroquinolin-4-yl)amino)phenyl)-N^5-(6-(((2S,4R)-2-methyl-1-propionyl-1,2,3,4-tetrahydroquinolin-4-yl)amino)pyridin-3-yl)glutaramide] | 97 | –
CCC(=O)N1c2ccccc2[C@H](Nc2ccc(-c3nnc(CNC(=O)C4CCN(Cc5cc(O)cc(-c6c(C)noc6C)c5)CC4)o3)cc2)C[C@@H]1C [Compound 12a, 1-(3-(3,5-Dimethylisoxazol-4-yl)-5-hydroxybenzyl)-N-((5-(4-(((2S,4R)-2-methyl-1-propionyl-1,2,3,4-tetrahydroquinolin-4-yl)amino)phenyl)-1,3,4-oxadiazol-2-yl)methyl)piperidine-4-carboxamide] | 98.5 | –
CCC(=O)N1c2ccccc2[C@H](Nc2ccc(NC(=O)C3CN(C(=O)C4CCN(Cc5cc(O)cc(-c6c(C)noc6C)c5)CC4)C3)cc2)C[C@@H]1C [Compound 12b, 1-(1-(3-(3,5-Dimethylisoxazol-4-yl)-5-hydroxybenzyl)piperidine-4-carbonyl)-N-(4-(((2S,4R)-2-methyl-1-propionyl-1,2,3,4-tetrahydroquinolin-4-yl)amino)phenyl)azetidine-3-carboxamide] | 97.8 | –
CCC(=O)N1c2ccccc2[C@H](Nc2ccc(NC(=O)CCCC(=O)NC3CCN(Cc4cc(O)cc(-c5c(C)noc5C)c4)CC3)cc2)C[C@@H]1C [Compound 12c, N^1-(1-(3-(3,5-Dimethylisoxazol-4-yl)-5-hydroxybenzyl)piperidin-4-yl)-N^5-(4-(((2S,4R)-2-methyl-1-propionyl-1,2,3,4-tetrahydroquinolin-4-yl)amino)phenyl)glutaramide] | 97.8 | –
CCC(=O)N1c2ccccc2[C@H](Nc2ccc(SCCNC(=O)c3ccc(C4=N[C@@H](CC(=O)OCCN(C)C)c5nnc(C)n5-c5sc(C)c(C)c54)cc3)cc2)C[C@@H]1C [Compound 13a, 2-(Dimethylamino)ethyl 2-((S)-2,3,9-trimethyl-4-(4-((2-((4-(((2S,4R)-2-methyl-1-propionyl-1,2,3,4-tetrahydroquinolin-4-yl)amino)phenyl)thio)ethyl)carbamoyl)phenyl)-6H-thieno[3,2-f][1,2,4]triazolo[4,3-a][1,4]diazepin-6-yl)acetate] | 97.6 | –
CCC(=O)N1c2ccccc2[C@H](Nc2ccc(C(=O)NCCCNC(=O)c3ccc(C4=N[C@@H](CC(=O)OC5CCC(O)CC5)c5nnc(C)n5-c5sc(C)c(C)c54)cc3)cc2)C[C@@H]1C (stereo partly drawn) [Compound 13d, 4-Hydroxycyclohexyl 2-((S)-2,3,9-trimethyl-4-(4-((3-(4-(((2S,4R)-2-methyl-1-propionyl-1,2,3,4-tetrahydroquinolin-4-yl)amino)benzamide)propyl)carbamoyl)phenyl)-6H-thieno[3,2-f][1,2,4]triazolo[4,3-a][1,4]diazepin-6-yl)acetate] | – | 97.2
CCC(=O)N1c2ccccc2[C@H](Nc2ccc(C(=O)NCCCNC(=O)c3ccc(C4=N[C@@H](CC(=O)OCCCOC)c5nnc(C)n5-c5sc(C)c(C)c54)cc3)cc2)C[C@@H]1C [Compound 13h, 3-Methoxypropyl 2-((S)-2,3,9-trimethyl-4-(4-((3-(4-(((2S,4R)-2-methyl-1-propionyl-1,2,3,4-tetrahydroquinolin-4-yl)amino)benzamide)propyl)carbamoyl)phenyl)-6H-thieno[3,2-f][1,2,4]triazolo[4,3-a][1,4]diazepin-6-yl)acetate] | – | 97.4
CCC(=O)N1c2ccccc2[C@H](Nc2ccc(-c3cnn(CC(=O)Nc4ccc(C5=NCc6nnc(C)n6-c6sc(C)c(C)c65)cc4)c3)cc2)C[C@@H]1C [Compound 14a, 2-(4-(4-(((2S,4R)-2-Methyl-1-propionyl-1,2,3,4-tetrahydroquinolin-4-yl)amino)phenyl)-1H-pyrazol-1-yl)-N-(4-(2,3,9-trimethyl-6H-thieno[3,2-f][1,2,4]triazolo[4,3-a][1,4]diazepin-4-yl)phenyl)acetamide] | 97.1 | –
CCC(=O)N1c2ccccc2[C@H](Nc2ccc(NC(=O)COCC(=O)Nc3ccc(C4=NCc5nnc(C)n5-c5sc(C)c(C)c54)cc3)cc2)C[C@@H]1C [Compound 14d, N-(4-(((2S,4R)-2-Methyl-1-propionyl-1,2,3,4-tetrahydroquinolin-4-yl)amino)phenyl)-2-(2-oxo-2-((4-(2,3,9-trimethyl-6H-thieno[3,2-f][1,2,4]triazolo[4,3-a][1,4]diazepin-4-yl)phenyl)amino)ethoxy)acetamide] | 97.4 | –
Cc1sc2c(c1C)C(c1ccc(NC(=O)C#CCNC(=O)c3ccc(C4=NCc5nnc(C)n5-c5sc(C)c(C)c54)cc3)cc1)=NCc1nnc(C)n1-2 [Compound 14e, N-(4-Oxo-4-((4-(2,3,9-trimethyl-6H-thieno[3,2-f][1,2,4]triazolo[4,3-a][1,4]diazepin-4-yl)phenyl)amino)but-2-yn-1-yl)-4-(2,3,9-trimethyl-6H-thieno[3,2-f][1,2,4]triazolo[4,3-a][1,4]diazepin-4-yl)benzamide] | 96.7 | –
